Reference: patent publication US10689398B2, “OXA-Diazaspiro compounds having activity against pain” (ESTEVE PHARMACEUTICALS, S.A., priority 2015, dated 2020)

Molecular target: human σ1 receptor (Homo sapiens (Human), UniProt Q99720)
Test: Human σ1 receptor radioligand assay
Type: binding
Conditions: transfected HEK-293 membranes, [3H](+)-pentazocine radioligand
Method: Human σ1 Receptor Radioligand Assay
To investigate binding properties of test compounds to human σ1 receptor, transfected HEK-293 membranes and [^3H](+)-pentazocine (Perkin Elmer, NET-1056), as the radioligand, were used. The assay was carried out with 7 μg of membrane suspension, 5 nM of [^3H](+)-pentazocine in either absence or presence of either buffer or 10 μM Haloperidol for total and non-specific binding, respectively. Binding buffer contained Tris-HCl 50 mM at pH 8. Plates were incubated at 37° C. for 120 minutes. After the incubation period, the reaction mix was then transferred to MultiScreen HTS, FC plates (Millipore), filtered and plates were washed 3 times with ice-cold 10 mM Tris-HCL (pH7.4). Filters were dried and counted at approximately 40% efficiency in a MicroBeta scintillation counter (Perkin-Elmer) using EcoScint liquid scintillation cocktail

human σ1 receptor, sequence (Q99720 whole entry): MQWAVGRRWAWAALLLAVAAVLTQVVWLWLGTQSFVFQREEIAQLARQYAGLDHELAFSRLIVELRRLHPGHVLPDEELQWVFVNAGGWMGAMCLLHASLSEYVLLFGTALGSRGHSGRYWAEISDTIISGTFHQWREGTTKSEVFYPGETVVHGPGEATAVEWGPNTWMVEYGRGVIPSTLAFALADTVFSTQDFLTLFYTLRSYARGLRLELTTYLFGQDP

Structure (SMILES): CC(C)CN1CCCC2(CC1)CN(Cc1ccccc1)CC1(CC1)O2 (centres unmarked) [Example 85, 13-benzyl-8-isobutyl-4-oxa-8,13-diazadispiro[2.1.6.3]tetradecane]
- Ki: < 100 nM

Structure (SMILES): CCN1C[C@@]2(CCCN(Cc3ccc(C#N)cc3)CC2)O[C@H](C)C1=O [Example 67, 4-(((2R,6S)-4-ethyl-2-methyl-3-oxo-1-oxa-4,9-diazaspiro[5.6]dodecan-9-yl)methyl)benzonitrile]
- Ki: ≥ 500 nM

Structure (SMILES): c1ccc(CCN2CCCC3(CC2)CN(Cc2ccccc2)CC2(CC2)O3)cc1 (centres unmarked) [Example 83, 13-benzyl-8-phenethyl-4-oxa-8,13-diazadispiro[2.1.6.3]tetradecane]
- Ki: < 100 nM

Structure (SMILES): c1ccc(CCN2CCCC3(C2)CN(c2ccccc2)CC2(CC2)O3)cc1 (centres unmarked) [Example 19, 7-phenethyl-12-phenyl-4-oxa-7,12-diazadispiro[2.1.5.3]tridecane]
- Ki: < 100 nM

Structure (SMILES): CC(C)N1CC2(CN(CC(C)(C)C)C2)O[C@H](C)C1=O [Example 77, (R)-8-isopropyl-6-methyl-2-neopentyl-5-oxa-2,8-diazaspiro[3.5]nonan-7-one]
- Ki: ≥ 500 nM

Structure (SMILES): CCN1CC2(CN(CC(C)(C)C)C2)O[C@@H](C)C1=O [Example 74, (S)-8-ethyl-6-methyl-2-neopentyl-5-oxa-2,8-diazaspiro[3.5]nonan-7-one]
- Ki: ≥ 500 nM

Structure (SMILES): CCN1CC2(CCCN(CCc3ccccc3)CC2)OC2(CC2)C1 (centres unmarked) [Example 16, 13-Ethyl-8-phenethyl-4-oxa-8,13-diazadispiro[2.1.6.3]tetradecane]
- Ki: < 100 nM

Structure (SMILES): CCN1CC2(CN(CC(C)C)C2)O[C@H](C)C1=O [Example 38, (R)-8-ethyl-2-isobutyl-6-methyl-5-oxa-2,8-diazaspiro[3.5]nonan-7-one]
- Ki: ≥ 500 nM

Structure (SMILES): CCN1C[C@@]2(CCCN(Cc3ccc(F)cc3)CC2)O[C@@H](C)C1=O [Example 65, (2S,6S)-4-ethyl-9-(4-fluorobenzyl)-2-methyl-1-oxa-4,9-diazaspiro[5.6]dodecan-3-one]
- Ki: ≥ 500 nM

Structure (SMILES): O=C(c1ccccc1)N1CC2(CC2)OC2(CCCN(Cc3ccccc3)C2)C1 (centres unmarked) [Example 55, (7-benzyl-4-oxa-7,12-diazadispiro[2.1.5.3]tridecan-12-yl)(phenyl)methanone]
- Ki: ≥ 500 nM

Structure (SMILES): CN1CC2(CCCN(Cc3ccccc3)CC2)OC2(CC2)C1=O (centres unmarked) [Example 71, 8-benzyl-13-methyl-4-oxa-8,13-diazadispiro[2.1.6.3]tetradecan-14-one]
- Ki: ≥ 500 nM

Structure (SMILES): c1ccc(CCN2CCCC3(C2)CN(Cc2ccccc2)CC2(CC2)O3)cc1 (centres unmarked) [Example 79, 12-benzyl-7-phenethyl-4-oxa-7,12-diazadispiro[2.1.5.3]tridecane]
- Ki: < 100 nM

Structure (SMILES): CCN1C[C@@]2(CCCN(CCC(C)C)CC2)O[C@H](C)C1=O [Example 46, (2R,6S)-4-ethyl-9-isopentyl-2-methyl-1-oxa-4,9-diazaspiro[5.6]dodecan-3-one]
- Ki: ≥ 500 nM

Structure (SMILES): CCN1CC2(CCCN(CCC(C)C)CC2)OC(C)(C)C1=O (centres unmarked) [Example 31, 4-ethyl-9-isopentyl-2,2-dimethyl-1-oxa-4,9-diazaspiro[5.6]dodecan-3-one]
- Ki: < 500 nM

Structure (SMILES): CCN1CC2(CCCN(Cc3ccccc3)CC2)OC(C)(C)C1=O (centres unmarked) [Example 57, 9-benzyl-4-ethyl-2,2-dimethyl-1-oxa-4,9-diazaspiro[5.6]dodecan-3-one]
- Ki: < 100 nM

Structure (SMILES): CC(C)N1CC2(CN(CCC(C)(C)C)C2)O[C@H](C)C1=O [Example 45, (R)-2-(3,3-dimethylbutyl)-8-isopropyl-6-methyl-5-oxa-2,8-diazaspiro[3.5]nonan-7-one]
- Ki: ≥ 500 nM

Structure (SMILES): CC(C)CN1CCCC2(C1)CN(C(=O)c1ccccc1)CC1(CC1)O2 (centres unmarked) [Example 26, (7-isobutyl-4-oxa-7,12-diazadispiro[2.1.5.3]tridecan-12-yl)(phenyl)methanone]
- Ki: ≥ 500 nM

Structure (SMILES): CC(C)CN1CCCC2(CC1)CN(C(=O)c1ccccc1)CC1(CC1)O2 (centres unmarked) [Example 29, (8-isobutyl-4-oxa-8,13-diazadispiro[2.1.6.3]tetradecan-13-yl)(phenyl)methanone]
- Ki: < 500 nM

Structure (SMILES): CC(C)CCN1CCCC2(CC1)CN(C(=O)c1ccccc1)CC1(CC1)O2 (centres unmarked) [Example 28, (8-isopentyl-4-oxa-8,13-diazadispiro[2.1.6.3]tetradecan-13-yl)(phenyl)methanone]
- Ki: < 100 nM

Structure (SMILES): CC(C)N1CC2(CN(CCC(C)(C)C)C2)O[C@@H](C)C1=O [Example 44, (S)-2-(3,3-dimethylbutyl)-8-isopropyl-6-methyl-5-oxa-2,8-diazaspiro[3.5]nonan-7-one]
- Ki: ≥ 500 nM

Structure (SMILES): c1ccc(CCN2CC3(CN(Cc4ccccc4)CC4(CC4)O3)C2)cc1 [Example 90, 10-benzyl-7-phenethyl-4-oxa-7,10-diazadispiro[2.1.3.3]undecane]
- Ki: < 100 nM

Structure (SMILES): CCN1CC2(CN(CCOC(C)C)C2)OC2(CC2)C1=O [Example 35, 10-ethyl-7-(2-isopropoxyethyl)-4-oxa-7,10-diazadispiro[2.1.3.3]undecan-11-one]
- Ki: ≥ 500 nM

Structure (SMILES): CCN1CC2(CCCN(Cc3ccccc3)C2)OC2(CC2)C1=O (centres unmarked) [Example 11, 7-Benzyl-12-ethyl-4-oxa-7,12-diazadispiro[2.1.5.3]tridecan-13-one]
- Ki: ≥ 500 nM

Structure (SMILES): CCN1C[C@]2(CCCN(CCC(C)C)CC2)O[C@H](C)C1=O [Example 47, (2R,6R)-4-ethyl-9-isopentyl-2-methyl-1-oxa-4,9-diazaspiro[5.6]dodecan-3-one]
- Ki: ≥ 500 nM

Structure (SMILES): CCN1CC2(CN(Cc3ccccc3)C2)OC2(CC2)C1=O [Example 13, 7-benzyl-10-ethyl-4-oxa-7,10-diazadispiro[2.1.3.3]undecan-11-one]
- Ki: ≥ 500 nM

Structure (SMILES): CCN1C[C@]2(CCCN(Cc3ccc(F)cc3)CC2)O[C@H](C)C1=O [Example 64, (2R,6R)-4-ethyl-9-(4-fluorobenzyl)-2-methyl-1-oxa-4,9-diazaspiro[5.6]dodecan-3-one]
- Ki: ≥ 500 nM

Structure (SMILES): CC1(C)CN(C(=O)c2ccccc2)C[C@]2(CCCN(CCc3ccccc3)CC2)O1 [Example 94, (R)-(2,2-dimethyl-9-phenethyl-1-oxa-4,9-diazaspiro[5.6]dodecan-4-yl)(phenyl)methanone]
- Ki: < 500 nM

Structure (SMILES): c1ccc(CCN2CCCC3(CC2)CN(c2ccccc2)CC2(CC2)O3)cc1 (centres unmarked) [Example 22, 8-phenethyl-13-phenyl-4-oxa-8,13-diazadispiro[2.1.6.3]tetradecane]
- Ki: < 100 nM

Structure (SMILES): CCN1CC2(CCCN(CCC(C)C)C2)OC2(CC2)C1=O (centres unmarked) [Example 1, 12-Ethyl-7-isopentyl-4-oxa-7,12-diazadispiro[2.1.5.3]tridecan-13-one]
- Ki: ≥ 500 nM

Structure (SMILES): CCN1CC(C)(C)OC2(CCCN(Cc3ccccc3)CC2)C1 (centres unmarked) [Example 86, 9-benzyl-4-ethyl-2,2-dimethyl-1-oxa-4,9-diazaspiro[5.6]dodecane]
- Ki: < 100 nM

Structure (SMILES): CCN1CC2(CC2)OC2(CCCN(Cc3ccccc3)C2)C1 (centres unmarked) [Example 17, 7-benzyl-12-ethyl-4-oxa-7,12-diazadispiro[2.1.5.3]tridecane]
- Ki: ≥ 500 nM

Structure (SMILES): CCN1CC2(CC2)OC2(CCCN(CCc3ccccc3)C2)C1 (centres unmarked) [Example 18]
- Ki: ≥ 500 nM

Structure (SMILES): CN1CC2(CCCN(Cc3ccc(C#N)cc3)CC2)OC2(CC2)C1=O (centres unmarked) [Example 73, 4-((13-methyl-14-oxo-4-oxa-8,13-diazadispiro[2.1.6.3]tetradecan-8-yl)methyl)benzonitrile]
- Ki: ≥ 500 nM

Structure (SMILES): CCN1C[C@]2(CCCN(Cc3ccc(C#N)cc3)CC2)O[C@@H](C)C1=O [Example 70, 4-(((2S,6R)-4-ethyl-2-methyl-3-oxo-1-oxa-4,9-diazaspiro[5.6]dodecan-9-yl)methyl)benzonitrile]
- Ki: ≥ 500 nM

Structure (SMILES): CCN1C[C@]2(CCCN(Cc3ccccc3)CC2)O[C@@H](C)C1=O [Example 62, (2S,6R)-9-benzyl-4-ethyl-2-methyl-1-oxa-4,9-diazaspiro[5.6]dodecan-3-one]
- Ki: ≥ 500 nM

Structure (SMILES): O=C1N(c2ccccc2)CC2(CCCN(CCc3ccccc3)C2)OC12CC2 (centres unmarked) [Example 7, 7-phenethyl-12-phenyl-4-oxa-7,12-diazadispiro[2.1.5.3]tridecan-13-one]
- Ki: < 500 nM

Structure (SMILES): CCN1CC2(CN(CC(C)(C)C)C2)O[C@H](C)C1=O [Example 75, (R)-8-ethyl-6-methyl-2-neopentyl-5-oxa-2,8-diazaspiro[3.5]nonan-7-one]
- Ki: ≥ 500 nM

Structure (SMILES): CCN1C[C@@]2(CCCN(Cc3ccccc3)CC2)OC2(CC2)C1=O [Example 93, (S)-8-benzyl-13-ethyl-4-oxa-8,13-diazadispiro[2.1.6.3]tetradecan-14-one]
- Ki: < 100 nM

Structure (SMILES): CC(C)CN1CC2(C1)CN(C(C)C)C(=O)[C@H](C)O2 [Example 43, (S)-2-isobutyl-8-isopropyl-6-methyl-5-oxa-2,8-diazaspiro[3.5]nonan-7-one]
- Ki: ≥ 500 nM

Structure (SMILES): CC(C)CCN1CCCC2(C1)CN(C(=O)c1ccccc1)CC1(CC1)O2 (centres unmarked) [Example 25, (7-isopentyl-4-oxa-7,12-diazadispiro[2.1.5.3]tridecan-12-yl)(phenyl)methanone]
- Ki: < 500 nM

Structure (SMILES): CCN1C[C@@]2(CCCN(Cc3ccc(F)cc3)CC2)O[C@H](C)C1=O [Example 63, (2R,6S)-4-ethyl-9-(4-fluorobenzyl)-2-methyl-1-oxa-4,9-diazaspiro[5.6]dodecan-3-one]
- Ki: ≥ 500 nM

Structure (SMILES): CC(C)CCN1CCCC2(C1)CN(c1ccccc1)C(=O)C1(CC1)O2 (centres unmarked) [Example 8, 7-isopentyl-12-phenyl-4-oxa-7,12-diazadispiro[2.1.5.3]tridecan-13-one]
- Ki: < 500 nM

Structure (SMILES): CCN1C[C@]2(CCCN(Cc3ccccc3)CC2)O[C@H](C)C1=O [Example 60, (2R,6R)-9-benzyl-4-ethyl-2-methyl-1-oxa-4,9-diazaspiro[5.6]dodecan-3-one]
- Ki: ≥ 500 nM

Structure (SMILES): c1ccc(CN2CCCC3(C2)CN(Cc2ccccc2)CC2(CC2)O3)cc1 (centres unmarked) [Example 78, 7,12-dibenzyl-4-oxa-7,12-diazadispiro[2.1.5.3]tridecane]
- Ki: < 100 nM
